Tests used:
[1] = biological target: recombinant DYRK1A kinase (Homo sapiens (Human), UniProt Q13627); assay: DYRK1A kinase assay (Ser/Thr 18 peptide Z-lyte FRET assay); format: biochemical; conditions: DYRK1A kinase activity; 15 μM ATP, 1 h room temperature; method text calls the value IC50
How it was run: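 FRET Z-lyte read-out (coumarin/fluorescein ratio, % phosphorylation) after 1 h development; IC50 from non-linear curve fit. Reaction: 0.25 μg/mL recombinant human DYRK1A, Ser/Thr 18 peptide 4 μM, ATP 15 μM, compound in 11-point 1:3 series from 10 μM, 1 h, room temperature, duplicate wells.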

[2] = tested on: Tau phosphorylation at Thr212 (pThr212); assay: tau phosphorylation assay: phosphoTau (Thr212) AlphaLISA in HEK293T cells transfected with DYRK1A and MAPT; format: cell-based; conditions: HEK-293T; HEK293T cells transfected with human DYRK1A and MAPT; 18-24 h compound treatment; read-out: pTau (Thr212) EC50
Protocol: Representative compounds were screened using the assay procedure for tau phosphorylation activity described below.
HEK293T cells (ATCC, CRL3216) cultured in DMEM (Thermo Fisher Scientific, 10566024) supplemented with 10% FBS (Corning, 35-011-CV) and Penicillin/Streptomycin (Thermo Fisher Scientific, 15140163) were seeded in a 75 cm^2 flask at 8.1×10^6 cells/flask. The HEK293T cells were then transiently transfected with 5 μg DYRK1A (NM_001396) human untagged clone (OriGene, SC314641) and 2.5 μg MAPT (441 a.a. Tau gene) (NM_005910) human untagged clone (OriGene, TP313312) using Lipofectamine 3000 (Thermo Fisher Scientific, L30000015) and incubated for 20-30 hours in a humidified incubator at 37° C. and 5% CO2. Post-incubation, HEK293T cells transfected with the DYRK1A and MAPT expression vectors were harvested and seeded in BioCoat poly-D lysine coated 96-well plates (Corning, 354461) at 3×10^4 cells/well.
The above synthesized compounds were screened using the cell assay procedure to assess decreased Tau phosphorylation at Thr212 (pThr212) described below.
Each compound was dissolved in DMSO (Sigma-Aldrich, D8418-100 mL) as a 10 mM stock. 10 mM stocks were serially diluted 1:3, 10-point dose-response curve and added to the cells with a final concentration ranging from 20 μM to 1.1 nM. Cell were treated with compounds in duplicate and incubated for 18-24 hours in a humidified incubator at 37° C. and 5% CO2.
Following the overnight compound treatment, cells were lysed with 1× Alpha Surefire Ultra Lysis Buffer (Perkin Elmer, ALSU-LB-100ML) complemented with 1× Halt Phosphatase Inhibitor Cocktail (Thermo Fisher Scientific, 78427) and 1× Halt Protease Inhibitor Cocktail (Thermo Fisher Scientific, 78438). Lysates were spun down at 12,000 g for 10 min to remove any cellular debris and 5 μL of lysates were dispensed into a 384-well Opti-Plate (Perkin Elmer, 6007290) for the measurement of Tau phosphorylation in the phosphoTau (Thr212) AlphaLISA assay. Donor antibody, biotinylated HT7Tau (Thermo Fisher Scientific, MN1000B), and acceptor antibody, pThr212Tau (Thermo Fisher Scientific, 44740G) were both added to the cell lysates at a final concentration of 3 nM and incubated for 1 hour at room temperature. Following incubation of the lysates with the donor and acceptor antibodies, anti-rabbit IgG (Fc specific) AlphaLISA acceptor beads (Perkin Elmer, AL104C) were added at a 10 μg/mL final concentration and incubated for 1 hour at room temperature protected from light. Lastly, AlphaScreen streptavidin donor beads (PerkinElmer, 6760002) were added at 40 μg/mL final concentration and incubated for 1 hour at room temperature protected from light. Plates were read at […], and Em=615 nm on the EnVision Multilabel Plate Reader (Perkin Elmer). PhosphoTau (Thr212) AlphaLISA signal was used to plot, draw the curve fitting, and determine each compound's EC50 in Prism (GraphPad).

Compound	EC50 [1] [nM]	EC50 [2] [nM]
CN1CCC(Nc2ncc3c(-c4cc5cnccc5s4)c[nH]c3n2)CC1 [Compound 87, N-(1-Methylpiperidin-4-yl)-5-(thieno[3,2-c]pyridin-2-yl)-7H-pyrrolo[2,3-d]pyrimidin-2-amine]	6.8	107
FC(F)(F)CCc1ncc2c(-c3cnc4nccn4c3)c[nH]c2n1 [Compound 449, 5-(Imidazo[1,2-a]pyrimidin-6-yl)-2-(3,3,3-trifluoropropyl)-7H-pyrrolo[2,3-d]pyrimidine]	9.4	497
Cc1nc2c(F)cc(-c3c[nH]c4nc(C5CC5)ncc34)cc2n1C1CCN(C)CC1 [Compound 544, 2-Cyclopropyl-5-(4-fluoro-2-methyl-1-(1-methylpiperidin-4-yl)-1H-benzo[d]imidazol-6-yl)-7H-pyrrolo[2,3-d]pyrimidine]	12.2	408
Cc1nc2c(F)cc(-c3c[nH]c4nc(C5CC5)ncc34)cc2n1C(C)C [Compound 499, 2-Cyclopropyl-5-(4-fluoro-1-isopropyl-2-methyl-1H-benzo[d]imidazol-6-yl)-7H-pyrrolo[2,3-d]pyrimidine]	6	296
Cc1nc2ncc(-c3c[nH]c4nc(C5CCC5)ncc34)cc2n1C(C)C [Compound 588, 6-(2-Cyclobutyl-7H-pyrrolo[2,3-d]pyrimidin-5-yl)-1-isopropyl-2-methyl-1H-imidazo[4,5-b]pyridine]	25	1470
COc1nc(CC(C)C)nc2[nH]cc(-c3cc(F)c4nccn4c3)c12 [Compound 187, 5-(8-Fluoroimidazo[1,2-a]pyridin-6-yl)-2-isobutyl-4-methoxy-7H-pyrrolo [2,3-d]pyrimidine]	20.3	765
CC[C@H](C)Nc1ncc2c(-c3cc(F)c4nccn4c3)c[nH]c2n1 [Compound 198, (S)—N-(sec-Butyl)-5-(8-fluoroimidazo[1,2-a]pyridin-6-yl)-7H-pyrrolo[2,3-d]pyrimidin-2-amine]	19.5	351
CC(C)(F)CNc1ncc2c(-c3ccc4ncc(C(F)F)n4c3)c[nH]c2n1 [Compound 329, 5-(3-(difluoromethyl)imidazo[1,2-a]pyridin-6-yl)-N-(2-fluoro-2-methylpropyl)-7H-pyrrolo[2,3-d]pyrimidin-2-amine]	6.8	211
c1cn2cc(-c3c[nH]c4nc(C5CC5)ncc34)cnc2n1 [Compound 450, 2-Cyclopropyl-5-(imidazo[1,2-a]pyrimidin-6-yl)-7H-pyrrolo[2,3-d]pyrimidine]	16.1	980
c1cn2cc(-c3c[nH]c4nc(C5CCC5)ncc34)ccc2n1 [Compound 103, 2-cyclobutyl-5-(imidazo[1,2-a]pyridin-6-yl)-7H-pyrrolo[2,3-d]pyrimidine]	21.9	4500
CC(C)(F)CNc1ncc2c(-c3ccc4ncc(F)n4c3)c[nH]c2n1 [Compound 155, N-(2-Fluoro-2-methylpropyl)-5-(3-fluoroimidazo[1,2-a]pyridin-6-yl)-7H-pyrrolo[2,3-d]pyrimidin-2-amine]	11.7	227
Cn1cc(-c2c[nH]c3nc(NC4CCC(F)(F)CC4)ncc23)ccc1=O [Compound 4, 5-(2-((4,4-Difluorocyclohexyl)amino)-7H-pyrrolo[2,3-d]pyrimidin-5-yl)-1-methylpyridin-2(1H)-one]	411	–

Other lines, results leading:

EC50 [1] [nM]	EC50 [2] [nM]	Compound
4	30	CC1(CNc2ncc3c(-c4ccc5nccn5n4)c[nH]c3n2)CC1 [Compound 919, 5-(Imidazo[1,2-b]pyridazin-6-yl)-N-((1-methylcyclopropyl)methyl)-7H-pyrrolo[2,3-d]pyrimidin-2-amine]
2.6	6	CO[C@H]1C[C@@H](Nc2ncc3c(-c4ccn5nccc5c4)c[nH]c3n2)C1 [Compound 1140, N-(cis-3-Methoxycyclobutyl)-5-(pyrazolo[1,5-a]pyridin-5-yl)-7H-pyrrolo [2,3-d]pyrimidin-2-amine]
1.2	24	CN1CCC(NC(=O)c2cnn3ccc(-c4c[nH]c5nc(NCC6(F)CCCCC6)ncc45)cc23)CC1 [Compound 1535, 5-(2-(((1-Fluorocyclohexyl)methyl)amino)-7H-pyrrolo[2,3-d]pyrimidin-5-yl)-N-(1-methylpiperidin-4-yl)pyrazolo[1,5-a]pyridine-3-carboxamide]
10.5	120	CC1(CNc2ncc3c(-c4ccn5nccc5n4)c[nH]c3n2)CC1 [Compound 1658, N-((1-Methylcyclopropyl)methyl)-5-(pyrazolo[1,5-a]pyrimidin-5-yl)-7H-pyrrolo[2,3-d]pyrimidin-2-amine]
9.7	219	CC(C)(F)CNc1ncc2c(-c3ccn4ncc(C(=O)N5CCCCC5)c4c3)c[nH]c2n1 [Compound 1214, (5-(2-((2-Fluoro-2-methylpropyl)amino)-7H-pyrrolo[2,3-d]pyrimidin-5-yl)pyrazolo[1,5-a]pyridin-3-yl)(piperidin-1-yl)methanone]
26.9	67	CN1CCC(Nc2ncc3c(-c4ccc5ncnn5c4)c[nH]c3n2)CC1 [Compound 750, 5-([1,2,4]Triazolo[1,5-a]pyridin-6-yl)-N-(1-methylpiperidin-4-yl)-7H-pyrrolo [2,3-d]pyrimidin-2-amine]
18.7	335	C[C@@H](Nc1ncc2c(-c3ccc4ncnn4c3)c[nH]c2n1)C(F)(F)F [Compound 734, (R)-5-([1,2,4]Triazolo[1,5-a]pyridin-6-yl)-N-(1,1,1-trifluoropropan-2-yl)-7H-pyrrolo[2,3-d]pyrimidin-2-amine]
3.1	22	CN1CCC(Nc2ncc3c(-c4ccc5ncccc5c4)c[nH]c3n2)CC1 [Compound 1888, N-(1-Methylpiperidin-4-yl)-5-(quinolin-6-yl)-7H-pyrrolo[2,3-d]pyrimidin-2-amine]
4.2	33	Cc1cnc2ccc(-c3c[nH]c4nc(NCC(C)(C)F)ncc34)nn12 [Compound 1038, N-(2-Fluoro-2-methylpropyl)-5-(3-methylimidazo[1,2-b]pyridazin-6-yl)-7H-pyrrolo[2,3-d]pyrimidin-2-amine]
7.3	165	C[C@@H](Nc1ncc2c(-c3ccc4nnn(C)c4c3)c[nH]c2n1)C1CC1 [Compound 831, (R)—N-(1-Cyclopropylethyl)-5-(1-methyl-1H-benzo[d][1,2,3]triazol-6-yl)-7H-pyrrolo[2,3-d]pyrimidin-2-amine]
9.2	572	COc1nc(CC(C)C)nc2[nH]cc(-c3ccn4nccc4c3)c12 [Compound 1113, 2-Isobutyl-4-methoxy-5-(pyrazolo[1,5-a]pyridin-5-yl)-7H-pyrrolo[2,3-d]pyrimidine]
28.1	–	FC(F)O[C@H]1CC[C@H](Nc2ncc3c(-c4ccn5nccc5n4)c[nH]c3n2)CC1 [Compound 3421, N-(trans-4-(difluoromethoxy)cyclohexyl)-5-(pyrazolo[1,5-a]pyrimidin-5-yl)-7H-pyrrolo[2,3-d]pyrimidin-2-amine]
5.7	–	CO[C@H]1C[C@@H](Nc2ncc3c(-c4ccc5nccnc5c4)c[nH]c3n2)C1 [Compound 2076, N-(cis-3-Methoxycyclobutyl)-5-(quinoxalin-6-yl)-7H-pyrrolo[2,3-d]pyrimidin-2-amine]
68.9	–	CC(C)(F)CNc1ncc2c(-c3ccn4ncc(F)c4c3)c[nH]c2n1 [Compound 1157, N-(2-Fluoro-2-methylpropyl)-5-(3-fluoropyrazolo[1,5-a]pyridin-5-yl)-7H-pyrrolo[2,3-d]pyrimidin-2-amine]

— US20250129104A1, “7H-PYRROLO[2,3-D]PYRIMIDINES AND PREPARATION AND USES THEREOF” (BioSplice Therapeutics, Inc., priority 2021, published 2025)
